Data reported in patent publication US8349824B2, “Triazolopyridine compounds” (Hoffmann-La Roche Inc., priority 2010, dated 2013).
pIC50: −log10 of the molar value.

Legend:
[1] = target: T1, human PDE10A full length (Homo sapiens, UniProt Q9Y233); assay: PDE10A Scintillation Proximity Assay (SPA), human PDE10A full length assay; type: biochemical; conditions: 50 nM cGMP + 50 nM [3H]-cGMP, 20 minutes at room temperature, read-out: PDE10A inhibition IC50
T1 construct: purchased Enzo Life Science, Lausen, Switzerland SE-534
T1 sequence (Q9Y233 1-779 isoform Q9Y233-1): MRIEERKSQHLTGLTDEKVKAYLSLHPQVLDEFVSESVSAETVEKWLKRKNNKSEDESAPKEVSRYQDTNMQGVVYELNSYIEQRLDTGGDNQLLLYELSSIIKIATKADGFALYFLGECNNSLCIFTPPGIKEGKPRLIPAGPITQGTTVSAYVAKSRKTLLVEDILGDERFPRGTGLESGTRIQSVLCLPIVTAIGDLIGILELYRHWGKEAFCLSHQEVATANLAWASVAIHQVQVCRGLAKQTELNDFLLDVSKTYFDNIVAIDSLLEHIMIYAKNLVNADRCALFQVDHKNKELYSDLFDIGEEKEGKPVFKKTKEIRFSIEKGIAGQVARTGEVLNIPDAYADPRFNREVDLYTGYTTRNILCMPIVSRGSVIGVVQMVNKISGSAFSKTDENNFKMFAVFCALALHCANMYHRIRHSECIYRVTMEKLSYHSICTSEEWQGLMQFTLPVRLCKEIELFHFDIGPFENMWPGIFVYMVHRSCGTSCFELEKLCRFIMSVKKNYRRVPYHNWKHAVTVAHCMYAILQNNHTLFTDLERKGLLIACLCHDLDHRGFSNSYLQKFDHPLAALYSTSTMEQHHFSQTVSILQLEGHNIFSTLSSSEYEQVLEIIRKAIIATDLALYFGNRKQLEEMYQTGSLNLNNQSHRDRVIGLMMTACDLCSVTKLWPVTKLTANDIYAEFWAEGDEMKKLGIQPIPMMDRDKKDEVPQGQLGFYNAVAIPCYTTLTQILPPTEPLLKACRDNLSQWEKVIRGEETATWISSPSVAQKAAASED
Procedure: The following test was carried out in order to determine the activity of the compounds of the present invention. PDE10 activity of the compounds of the present invention was determined using a Scintillation Proximity Assay (SPA)-based method similar to the one previously described (Fawcett, L. et al., Proc Natl Acad Sci USA (2000) 97(7):3702-3707).
The human PDE10A full length assay was performed in 96-well micro titer plates. The reaction mixture of 50 μl contained 20 mM HEPES pH=7.5/10 mM MgCl2/0.05 mg/ml BSA (Sigma cat. #A-7906), 50 nM cGMP (Sigma, cat. #G6129) and 50 nM [^3H]-cGMP (GE Healthcare, cat. #TRK392 S.A. 13.2Ci/mmol), 3.75 ng/well PDE10A enzyme (Enzo Life Science, Lausen, Switzerland cat #SE-534) with or without a specific test compound. A range of concentrations of the potential inhibitor was used to generate data for calculating the concentration of inhibitor resulting in 50% of the effect (e.g. IC50, the concentration of the competitor inhibiting PDE10A activity by 50%). Non-specific activity was tested without the enzyme. The reaction was initiated by the addition of the substrate solution (cGMP and [^3H]-cGMP) and allowed to progress for 20 minutes at room temperature. The reaction was terminated by adding 25 μl of YSi-SPA scintillation beads (GE Healthcare, cat. #RPNQ0150) in 18 mM zinc sulphate solution (stop reagent). After 1 h under shaking, the plate was centrifuged one minute at 170 g to allow beads to settle. Afterwards, radioactive counts were measured on a Perkin Elmer TopCount Scintillation plate reader.

Row | SMILES | melting point | pIC50 [1]
1 | COC(=O)c1cnn(C)c1C(=O)Nc1ccn2nc(-c3ccccc3)nc2c1 [Example 1, methyl 1-methyl-5-(2-phenyl-[1,2,4]triazolo[1,5-a]pyridin-7-ylcarbamoyl)-1H-pyrazole-4-carboxylate] | 243 to 247 °C | 7.84
2 | Cn1ncc(C(=O)O)c1C(=O)Nc1ccn2nc(-c3ccccc3)nc2c1 [Example 2, 1-Methyl-5-(2-phenyl-[1,2,4]triazolo[1,5-a]pyridin-7-ylcarbamoyl)-1H-pyrazole-4-carboxylic acid] | > 300 °C | 7.60
3 | Cn1ncc(C(=O)N2CCC2)c1C(=O)Nc1ccn2nc(-c3ccccc3)nc2c1 [Example 3, 4-(Azetidine-1-carbonyl)-2-methyl-2H-pyrazole-3-carboxylic acid (2-phenyl-[1,2,4]triazolo[1,5-a]pyridin-7-yl)-amide] | 243 to 245 °C | 9.15
4 | COCCN(C)C(=O)c1cnn(C)c1C(=O)Nc1ccn2nc(-c3ccccc3)nc2c1 [Example 4, N4-(2-methoxyethyl)-N4,1-dimethyl-N5-(2-phenyl-[1,2,4]triazolo[1,5-a]pyridin-7-yl)-1H-pyrazole-4,5-dicarboxamide] | 172 to 175 °C | 9.55
5 | CCN(C)C(=O)c1cnn(C)c1C(=O)Nc1ccn2nc(-c3ccccc3)nc2c1 [Example 5, N4-ethyl-N4,1-dimethyl-N5-(2-phenyl-[1,2,4]triazolo[1,5-a]pyridin-7-yl)-1H-pyrazole-4,5-dicarboxamide] | 193 to 194 °C | 9.30
6 | CCNC(=O)c1cnn(C)c1C(=O)Nc1ccn2nc(-c3ccccc3)nc2c1 [Example 7, N4-ethyl-1-methyl-N5-(2-phenyl-[1,2,4]triazolo[1,5-a]pyridin-7-yl)-1H-pyrazole-4,5-dicarboxamide] | 253 to 255 °C | 8.79
7 | Cn1ncc(C(=O)N2CCC2)c1C(=O)Nc1ccn2nc(N3CCOCC3)nc2c1 [Example 8, 4-(Azetidine-1-carbonyl)-1-methyl-N-(2-morpholino-[1,2,4]triazolo[1,5-a]pyridin-7-yl)-1H-pyrazole-5-carboxamide] | 232 to 234 °C | 8.73
8 | Cc1c(NC(=O)c2c(C(=O)N3CCC3)cnn2C)ccn2nc(-c3ccccc3)nc12 [Example 9, 4-(Azetidine-1-carbonyl)-1-methyl-N-(8-methyl-2-phenyl-[1,2,4]triazolo[1,5-a]pyridin-7-yl)-1H-pyrazole-5-carboxamide] | 243 to 245 °C | 7.79
9 | Cc1cn2nc(-c3ccccc3)nc2cc1NC(=O)c1c(C(=O)N2CCC2)cnn1C [Example 10, 4-(Azetidine-1-carbonyl)-1-methyl-N-(6-methyl-2-phenyl-[1,2,4]triazolo[1,5-a]pyridin-7-yl)-1H-pyrazole-5-carboxamide] | 226 to 228 °C | 9.72
10 | CN(C)C(=O)c1cnn(C)c1C(=O)Nc1ccn2nc(-c3ccccc3)nc2c1 [Example 11, 2-Methyl-2H-pyrazole-3,4-dicarboxylic acid 4-dimethylamide 3-[(2-phenyl-[1,2,4]triazolo[1,5-a]pyridin-7-yl)-amide]] | > 250 °C | 9.05
11 | Cn1ncc(C(=O)N2CCCC2)c1C(=O)Nc1ccn2nc(-c3ccccc3)nc2c1 [Example 13, 1-Methyl-N-(2-phenyl-[1,2,4]triazolo[1,5-a]pyridin-7-yl)-4-(pyrrolidine-1-carbonyl)-1H-pyrazole-5-carboxamide] | 210 to 215 °C | 9.89
12 | Cn1ncc(C(=O)N[C@H]2CCOC2)c1C(=O)Nc1ccn2nc(-c3ccccc3)nc2c1 [Example 14, (S)-1-Methyl-N5-(2-phenyl-[1,2,4]triazolo[1,5-a]pyridin-7-yl)-N4-(tetrahydrofuran-3-yl)-1H-pyrazole-4,5-dicarboxamide] | > 250 °C | 7.91
13 | Cn1ncc(C(=O)N[C@@H]2CCOC2)c1C(=O)Nc1ccn2nc(-c3ccccc3)nc2c1 [Example 15, (R)-1-Methyl-N5-(2-phenyl-[1,2,4]triazolo[1,5-a]pyridin-7-yl)-N4-(tetrahydrofuran-3-yl)-1H-pyrazole-4,5-dicarboxamide] | > 250 °C | 8.31

The remaining lines, values ahead:

Row | melting point | pIC50 [1] | SMILES
14 | 272 to 273 °C | 7.28 | Cn1ncc(C(=O)N2C[C@H]3C[C@@H]2CO3)c1C(=O)Nc1ccn2nc(-c3cccnc3)nc2c1 (stereo in doubt) [Example 57, 2-Methyl-4-((1R,4R)-2-oxa-5-aza-bicyclo[2.2.1]heptane-5-carbonyl)-2H-pyrazole-3-carboxylic acid (2-pyridin-3-yl-[1,2,4]triazolo[1,5-a]pyridin-7-yl)-amide]
15 | 191 to 193 °C | 8.63 | COCCCNC(=O)c1cnn(C)c1C(=O)Nc1ccn2nc(-c3ccccc3)nc2c1 [Example 16, N4-(3-Methoxypropyl)-1-methyl-N5-(2-phenyl-[1,2,4]triazolo[1,5-a]pyridin-7-yl)-1H-pyrazole-4,5-dicarboxamide]
16 | > 250 °C | 7.93 | Cn1ncc(C(=O)NC2COC2)c1C(=O)Nc1ccn2nc(-c3ccccc3)nc2c1 [Example 17, 1-Methyl-N4-(oxetan-3-yl)-N5-(2-phenyl-[1,2,4]triazolo[1,5-a]pyridin-7-yl)-1H-pyrazole-4,5-dicarboxamide]
17 | 177 to 179 °C | 9.60 | CCN(CC)C(=O)c1cnn(C)c1C(=O)Nc1ccn2nc(-c3ccccc3)nc2c1 [Example 18, N4,N4-diethyl-1-methyl-N5-(2-phenyl-[1,2,4]triazolo[1,5-a]pyridin-7-yl)-1H-pyrazole-4,5-dicarboxamide]
18 | > 250 °C | 8.27 | CC(C)NC(=O)c1cnn(C)c1C(=O)Nc1ccn2nc(-c3ccccc3)nc2c1 [Example 19, N4-isopropyl-1-methyl-N5-(2-phenyl-[1,2,4]triazolo[1,5-a]pyridin-7-yl)-1H-pyrazole-4,5-dicarboxamide]
19 | 110 to 150 °C | 8.91 | Cc1ccc(CN(C)C(=O)c2cnn(C)c2C(=O)Nc2ccn3nc(-c4ccccc4)nc3c2)cn1 [Example 20, N4,1-dimethyl-N4-((6-methylpyridin-3-yl)methyl)-N5-(2-phenyl-[1,2,4]triazolo[1,5-a]pyridin-7-yl)-1H-pyrazole-4,5-dicarboxamide]
20 | > 250 °C | 8.05 | Cn1ncc(C(=O)N2CCS(=O)(=O)CC2)c1C(=O)Nc1ccn2nc(-c3ccccc3)nc2c1 [Example 22, 4-(1,1-Dioxo-thiomorpholine-4-carbonyl)-2-methyl-2H-pyrazole-3-carboxylic acid (2-phenyl-[1,2,4]triazolo[1,5-a]pyridin-7-yl)-amide]
21 | > 250 °C | 8.37 | CNC(=O)c1cnn(C)c1C(=O)Nc1ccn2nc(-c3ccccc3)nc2c1 [Example 23, N4,1-dimethyl-N5-(2-phenyl-[1,2,4]triazolo[1,5-a]pyridin-7-yl)-1H-pyrazole-4,5-dicarboxamide]
22 | 269 to 270 °C | 7.67 | COC1CN(C(=O)c2cnn(C)c2C(=O)Nc2ccn3nc(-c4ccccc4)nc3c2)C1 [Example 24, 4-(3-Methoxyazetidine-1-carbonyl)-1-methyl-N-(2-phenyl-[1,2,4]triazolo[1,5-a]pyridin-7-yl)-1H-pyrazole-5-carboxamide]
23 | 259 to 262 °C | 9.41 | Cn1ncc(C(=O)N2CC(F)C2)c1C(=O)Nc1ccn2nc(-c3ccccc3)nc2c1 [Example 25, 4-(3-Fluoroazetidine-1-carbonyl)-1-methyl-N-(2-phenyl-[1,2,4]triazolo[1,5-a]pyridin-7-yl)-1H-pyrazole-5-carboxamide]
24 | 242 to 243 °C | 8.14 | CCOC(=O)c1cnn(C)c1C(=O)Nc1ccn2nc(-c3ccccc3)nc2c1 [Example 28, ethyl 1-methyl-5-(2-phenyl-[1,2,4]triazolo[1,5-a]pyridin-7-ylcarbamoyl)-1H-pyrazole-4-carboxylate]
25 | 206 to 208 °C | 7.39 | Cn1ncc(C(=O)N2CCOCC2)c1C(=O)Nc1ccn2nc(N3CCOCC3)nc2c1 [Example 29, 1-Methyl-4-(morpholine-4-carbonyl)-N-(2-morpholino-[1,2,4]triazolo[1,5-a]pyridin-7-yl)-1H-pyrazole-5-carboxamide]
26 | > 250 °C | 8.90 | Cn1ncc(C(=O)N2CCC2)c1C(=O)Nc1cc2nc(-c3ccccc3)nn2cc1F [Example 30, 4-(Azetidine-1-carbonyl)-N-(6-fluoro-2-phenyl-[1,2,4]triazolo[1,5-a]pyridin-7-yl)-1-methyl-1H-pyrazole-5-carboxamide]
27 |  | 7.79 | Cn1ncc(C(=O)N2CCOCC2)c1C(=O)Nc1ccn2nc(N3CCCC3=O)nc2c1 [Example 133, Methyl-4-(morpholine-4-carbonyl)-N-(2-(2-oxopyrrolidin-1-yl)-[1,2,4]triazolo[1,5-a]pyridin-7-yl)-1H-pyrazole-5-carboxamide]
